EC50 data for 22 compounds are collected here from patent US20120322819A1, “COMPOUND CONTAINING A NOVEL 4-ALKOXYPYRIMIDINE STRUCTURE AND MEDICINE CONTAINING SAME” (KOWA COMPANY, LTD., priority 2010, published 2012).

The target in the assay is T1, human PPARγ2 (Homo sapiens, UniProt P37231).
T1 construct: the amino acids 182 to 505 of human PPARγ2; expressed in transfected cells; host or cells: COST cells (so in the source)
T1 sequence (P37231 182-505): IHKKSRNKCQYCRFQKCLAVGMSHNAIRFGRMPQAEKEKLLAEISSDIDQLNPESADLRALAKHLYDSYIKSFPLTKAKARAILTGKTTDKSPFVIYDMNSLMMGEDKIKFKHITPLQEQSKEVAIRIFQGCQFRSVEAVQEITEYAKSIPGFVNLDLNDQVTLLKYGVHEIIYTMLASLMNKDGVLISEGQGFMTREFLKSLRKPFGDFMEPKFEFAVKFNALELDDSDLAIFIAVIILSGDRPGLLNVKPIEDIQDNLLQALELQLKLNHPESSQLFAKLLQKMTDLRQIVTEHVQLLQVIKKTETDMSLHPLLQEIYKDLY
Description: PPARγ activation activity, Gal4-PPARγ2 LBD chimera luciferase transfection assay in COST cells. It is filed as cell-based. The following applies: Gal4 (aa 1-147)/human PPARγ2 LBD (aa 182-505) chimera, luciferase reporter, 16 hours, rosiglitazone (3 to 10 μmol/L) = 100%, read-out: EC50 (50% effective concentration, PPARγ activation). As to the method: PPARγ Activation Activity
The agonistic activity of the compounds of the invention on PPARγ was measured based on the transfection assay using COST cells (DS Pharma Biomedical Co., Ltd., Osaka, Japan), which are the cell line derived from the kidney of the African green monkey. COST cells were cultured under 5% CO2 concentration, and DMEM medium containing 10% fetal bovine serum, glutamic acid, and antibiotics was used as a medium.
As an expression vector, a chimera in which DNA binding domain of Ga14, which is a yeast transcription factor, and ligand binding domain of human PPARγ2 are fused, i.e., a fused product between the amino acids 1 to 147 of Gal4 transcription factor and the amino acids 182 to 505 of human PPARγ2, was used. Furthermore, as a reporter vector, a firefly luciferase containing five copies of Gal4 recognition sequence in the promoter region was used. Plasmid transfection to the cells was performed according to a method which uses jetPEI (trade name, manufactured by Funakoshi Co., Ltd., Tokyo, Japan). Furthermore, β-galactosidase expression vector was employed as an internal standard.
After the transfection of the cells, the medium was replaced with a DMEM medium (containing 1% serum) added with the test compound, and the cells were further cultured for 16 hours. After that, the luciferase activity and β-galactosidase activity in the cell lysis solution were measured.
For the present test, dimethylsulfoxide (DMSO) was used for dissolution and dilution of the test compounds, and during the cell treatment, the DMSO concentration in DMEM medium (containing 1% serum) was adjusted to 0.1%. As a positive compound, rosiglitazone (trade name, manufactured by ALEXIS Corporation, Switzerland) was used. The percentage (%) of the luciferase activity of the each test compound (1 to 30 μmol/L) was calculated when the luciferase activity of rosiglitazone (3 to 10 μmol/L) is 100% and the luciferase activity in the absence of the test compound is 0%. The 50% effective concentration of the test compound (EC50, 50% effect concentration) was calculated by using SAS Preclinical Package Ver 5.0 (trade name, manufactured by SAS institute Japan Co., Tokyo, Japan), which is a statistical analysis program.

For `CCCCc1nc(C)nc(OCCOCC)c1Cc1ccc(-c2ccccc2-c2noc(=O)[nH]2)cc1` [Example 11, 3-{4′-{[4-butyl-6-(2-ethoxyethoxy)-2-methylpyrimidin-5-yl]methyl}-[1,1′-biphenyl]-2-yl}-1,2,4-oxadiazol-5(4H)-one], the EC50 amounted to 870 nM.

In the case of `CCCc1nc2c(C)cc(-c3nc4ccccc4n3C)cc2n1Cc1ccc(-c2ccccc2C(=O)O)cc1` [telmisartan, reference compound], the EC50 lay in the range of 1000 to 5000 nM. For `CCCCc1nc(C)nc(OCC(C)O)c1Cc1ccc(-c2ccccc2-c2noc(=O)[nH]2)cc1` (stereo not shown) [Example 21, 3-{4′-{[4-butyl-6-(2-hydroxypropoxy)-2-methylpyrimidin-5-yl]methyl}-[1,1′-biphenyl]-2-yl}-1,2,4-oxadiazol-5(4H)-one] the value was 400 nM; for `CCCCc1nc(C)nc(OCC(OCC)OCC)c1Cc1ccc(-c2ccccc2-c2noc(=O)[nH]2)cc1` [Example 20, 3-{4′-{[4-butyl-6-(2,2-diethoxyethoxy)-2-methylpyrimidin-5-yl]methyl}-[1,1′-biphenyl]-2-yl}-1,2,4-oxadiazol-5(4H)-one], 310 nM.

As to `CCCCc1nc(C)nc(OCCCC(=O)N(CC)CC)c1Cc1ccc(-c2ccccc2-c2noc(=O)[nH]2)cc1` [Example 10, 4-{{6-butyl-2-methyl-5-{[2′-(5-oxo-4,5-dihydro-1,2,4-oxadiazol-3-yl)-[1,1′-biphenyl]-4-yl]methyl}pyrimidin-4-yl}oxy}-N,N-diethylbutanamide], the EC50 worked out at 1790 nM. For `CCCCc1nc(C)nc(OCC(OC)OC)c1Cc1ccc(-c2ccccc2-c2noc(=O)[nH]2)cc1` [Example 19, 3-{4′-{[4-butyl-6-(2,2-dimethoxyethoxy)-2-methylpyrimidin-5-yl]methyl}-[1,1′-biphenyl]-2-yl}-1,2,4-oxadiazol-5(4H)-one] the value was 880 nM; for `CCCCc1nc(C)nc(OCCOC(C)C)c1Cc1ccc(-c2ccccc2-c2noc(=O)[nH]2)cc1` [Example 16, 3-{4′-{[4-butyl-6-(2-isopropoxyethoxy)-2-methylpyrimidin-5-yl]methyl}-[1,1′-biphenyl]-2-yl}-1,2,4-oxadiazol-5(4H)-one], 640 nM.

Take `CCCCc1nc(C)nc(OCC(=O)N2CCCC2)c1Cc1ccc(-c2ccccc2-c2noc(=O)[nH]2)cc1` [Example 29, 3-{4′-{{4-butyl-2-methyl-6-[2-oxo-2-(pyrrolidin-1-yl)ethoxy]pyrimidin-5-yl}methyl}-[1,1′-biphenyl]-2-yl}-1,2,4-oxadiazof-5 (4H)-one]: the EC50 was 2080 nM. Regarding `CCCCc1nc(C)nc(OCCSC)c1Cc1ccc(-c2ccccc2-c2noc(=O)[nH]2)cc1` [Example 17, 3-{4′-{{4-butyl-2-methyl-6-[2-(methylthio)ethoxy]pyrimidin-5-yl}methyl}-[1,1′-biphenyl]-2-yl}-1,2,4-oxadiazol-5(4H)-one], the EC50 stood at 410 nM. Regarding `CCCCc1nc(C)nc(OC(C(=O)OC)c2ccccc2)c1Cc1ccc(-c2ccccc2-c2noc(=O)[nH]2)cc1` (stereo not shown) [Example 25, methyl 2-{{6-butyl-2-methyl-5-{[2′-(5-oxo-4,5-dihydro-1,2,4-oxadiazol-3-yl)-[1,1-biphenyl]-4-yl]methyl}pyrimidin-4-yl}oxy}-2-phenylacetate], the EC50 was determined as 730 nM. Regarding `CCCCc1nc(C)nc(OCCc2ccc(OCCOC)c(OC)c2)c1Cc1ccc(-c2ccccc2-c2noc(=O)[nH]2)cc1` [Example 36, 3-{4′-{{4-butyl-6-[3-methoxy-4-(2-methoxyethoxy)phenethoxy]-2-methylpyrimidin-5-yl}methyl}-[1,1′-biphenyl]-2-yl}-1,2,4-oxadiazol-5 (4H)-one], the EC50 amounted to 630 nM. For `CCCCc1nc(C)nc(OCc2nc(-c3ccc(C)cc3)oc2C)c1Cc1ccc(-c2ccccc2-c2noc(=O)[nH]2)cc1` [Example 32, 3-{4′-{{4-butyl-2-methyl-6-{[5-methyl-2-(p-tolyl)oxazol-4-yl]methoxy}pyrimidin-5-yl}methyl}-[1,1′-biphenyl]-2-yl}-1,2,4-oxadiazol-5(4H)-one] the value was 380 nM.

With `CCCCc1nc(C)nc(OCCCCOC)c1Cc1ccc(-c2ccccc2-c2noc(=O)[nH]2)cc1` [Example 23, 3-{4′-{[4-butyl-6-(4-methoxybutoxy)-2-methylpyrimidin-5-yl]methyl}-[1,1′-biphenyl]-2-yl}-1,2,4-oxadiazol-5(4H)-one], the EC50 was found to be 710 nM. The value for `CCCCc1nc(C)nc(OCC(N)=O)c1Cc1ccc(-c2ccccc2-c2noc(=O)[nH]2)cc1` [Example 3, 2-{{6-butyl-2-methyl-5-{[2′-(5-oxo-4,5-dihydro-1,2,4-oxadiazol-3-yl)-[1,1′-biphenyl]-4-yl]methyl}pyrimidin-4-yl}oxy}acetamide] was 2870 nM; that for `CCCCc1nc(C)nc(OCC2OCCO2)c1Cc1ccc(-c2ccccc2-c2noc(=O)[nH]2)cc1` [Example 24, 3-{4′-{{4-[(1,3-dioxolan-2-yl)methoxy]-6-butyl-2-methylpyrimidin-5-yl}methyl}-[1,1′-biphenyl]-2-yl}-1,2,4-oxadiazol-5(4H)-one] was 1380 nM; that for `CCCCc1nc(C)nc(OCCOCCOC)c1Cc1ccc(-c2ccccc2-c2noc(=O)[nH]2)cc1` [Example 13, 3-{4′-{{4-butyl-6-[2-(2-methoxyethoxy)ethoxy]-2-methylpyrimidin-5-yl}methyl}-[1,1′-biphenyl]-2-yl}-1,2,4-oxadiazol-5(4H)-one] was 1600 nM. With `CCCCc1nc(C)nc(OCCOCCC)c1Cc1ccc(-c2ccccc2-c2noc(=O)[nH]2)cc1` [Example 12, 3-{4′-{[4-butyl-2-methyl-6-(2-propoxyethoxy)pyrimidin-5-yl]methyl}-[1,1′-biphenyl]-2-yl}-1,2,4-oxadiazol-5(4H)-one], the EC50 turned out to be 570 nM.

On to `CCCCc1nc(C)nc(OC2CCC(=O)CC2)c1Cc1ccc(-c2ccccc2-c2noc(=O)[nH]2)cc1` [Example 35, 3-{4′-{{4-butyl-2-methyl-6-[(4-oxocyclohexyl)oxy]pyrimidin-5-yl}methyl}-[1,1′-biphenyl]-2-yl}-1,2,4-oxadiazol-5(4H)-one], for which the EC50 is 1530 nM. For `CCCCc1nc(C)nc(OC2CCC(O)CC2)c1Cc1ccc(-c2ccccc2-c2noc(=O)[nH]2)cc1` (stereo not shown) [Example 34, 3-{4′-{{4-butyl-6-[(4-hydroxycyclohexyl)oxy]-2-methylpyrimidin-5-yl]methyl}-[1,1′-biphenyl]-2-yl}-1,2,4-oxadiazol-5 (4H)-one] the value was 1360 nM; for `CCCCc1nc(C)nc(OCCOCc2ccccc2)c1Cc1ccc(-c2ccccc2-c2noc(=O)[nH]2)cc1` [Example 14, 3-{4′-{{4-[2-(benzyloxy)ethoxy]-6-butyl-2-methylpyrimidin-5-yl}methyl}-[1,1′-biphenyl]-2-yl}-1,2,4-oxadiazol-5(4H)-one], 290 nM. With `CCCCCc1nc(C)nc(OCCOC)c1Cc1ccc(-c2ccccc2-c2noc(=O)[nH]2)cc1` [Example 37, 3-{4′-{[4-(2-methoxyethoxy)-2-methyl-6-pentylpyrimidin-5-yl]methyl}-[1,1′-biphenyl]-2-yl}-1,2,4-oxadiazol-5(4H)-one], the EC50 is 840 nM.

On to `CCCCc1nc(C)nc(OCCCC(=O)NCC)c1Cc1ccc(-c2ccccc2-c2noc(=O)[nH]2)cc1` [Example 9, 4-{{6-butyl-2-methyl-5-{[2′-(5-oxo-4,5-dihydro-1,2,4-oxadiazol-3-yl)-[1,1′-biphenyl]-4-yl]methyl}pyrimidin-4-yl}oxy}-N-ethylbutanamide], for which the EC50 was 2800 nM.
